Experimental data: US11793827B2, “Adenosine derivative and pharmaceutical composition comprising the same” (Brii Biosciences, Inc., priority 2021, dated 2023)

How the values were obtained:
[1] = Liver S9 stability (human liver S9); type: in vitro ADME; settings: for half-life at 1 µM: human liver S9, 37° C.; for Formation of EFdA at 30 min: human liver S9, 30 min
Description: Add 600 μL/well stop solution (cold in 4° C., including 100 ng/mL Tolbutamide/100 ng/mL Labetalol) to terminate the TO plate, then put it on ice. Dispense 840 μL/well S9 solution to 96-well plate as reservoir according to plate map. Then add 100 μL/well to every plate by Apricot. Incubate S9 solution and compound at 37° C. for about 10 min except NCF60 and TO. After adding S9 solution and 98μ LPB buffer to NCF60, incubate at 37° C. without pre-warming, start timer 1. After 60 min, add 600 μL/well stop solution to terminate the reaction. After pre-warming, dispense 760 μL/well cofactor solution to 96-well plate as reservoir according to plate map. Then add 98 μL/well to every plate by Apricot to start reaction. Incubate at 37° C., start timer 2, Add 600 μL/well stop solution (cold in 4° C., including 100 ng/mL Tolbutamide and Labetalol) to terminate the reaction. Samples are centrifuged at 4000 rpm for 20 min. While centrifuging, load 8× new 96-well plate with 300 μL HPLC water, then transfer 100 μL supernatant, mix with water for LC/MS/MS, transferred to Bioanalytical Services for LC-MS/MS analysis. Use equation of first order kinetics [NT]1/2 and CL: Equation of first order kinetics: [formula] [formula] [formula] [formula]

[2] = Plasma exposures following intramuscular administration of prodrugs to cynomolgus monkeys; settings: single IM injection, 10 mg/kg
[3] = Plasma stability (human plasma); settings: for Formation of EFdA at 30 min: human plasma; for half-life at 2 µM: human, pH 7.4
Description: The pooled frozen plasma was thawed in a water bath at 37° C. prior to experiment. Plasma was centrifuged at 4000 rpm for 5 min and the clots were removed if any. The pH will be adjusted to 7.4±0.1 if required.
Preparation of test compounds and positive control (propantheline bromide): 1 mM intermediate solution was prepared by diluting 10 μL of the stock solution with 90 μL MeOH; 1 mM intermediate of positive control Propantheline was prepared by diluting 10 μL of the stock solution with 90 μL ultrapure water. 100 μM dosing solution was prepared by diluting 20 μL of the intermediate solution (1 mM) with 180 μL MeOH. 98 μL of blank plasma was spiked with 2 μL of dosing solution (100 μM) to achieve 2 μM of the final concentration in duplicate and samples were incubated at 37° C. in a water bath. […] Centrifuged sample plates at 4,000 rpm for 10 min. An aliquot of supernatant (100 μL) was transferred from each well to another plates.

SMILES | half-life at 1 µM [1] | Formation of EFdA at 30 min [1] | Release of EFdA in vivo and prodrug level in the systemic circulation [2] | Formation of EFdA at 30 min [3] | half-life at 2 µM ([3]; pooled plasma) | half-life at 2 µM ([3]; plasma)
C#C[C@]1(COC(=O)OCCC23CC4CC(CC(C4)C2)C3)O[C@@H](n2cnc3c(N)nc(F)nc32)C[C@@H]1O [Compound 7, ((2R, 3S, 5R)-5-(6-amino-2-fluoro-9H-purin-9-yl)-2-ethynyl-3-hydroxy-tetrahydrofuran-2-yl)methyl 2-(1-adamantyl)ethyl carbonate] | < 50 min | Yes | efficiently release EFdA in vivo with minimal to low levels of prodrug detected in the systemic circulation | Yes | < 50 min | 
C#C[C@]1(COC(=O)OCCCC23CC4CC(CC(C4)C2)C3)O[C@@H](n2cnc3c(N)nc(F)nc32)C[C@@H]1O [Compound 10, ((2R,3S,5R)-5-(6-amino-2-fluoro-9H-purin-9-yl)-2-ethynyl-3-hydroxy-tetrahydrofuran-2-yl)methyl 3-(1-adamantyl)propyl carbonate] | < 50 min | Yes | efficiently release EFdA in vivo with minimal to low levels of prodrug detected in the systemic circulation | Yes | < 50 min | 
C#C[C@]1(COC(=O)OCCCCC23CC4CC(CC(C4)C2)C3)O[C@@H](n2cnc3c(N)nc(F)nc32)C[C@@H]1O [Compound 12, ((2R,3S,5R)-5-(6-amino-2-fluoro-9H-purin-9-yl)-2-ethynyl-3-hydroxy-tetrahydrofuran-2-yl)methyl 4-(1-adamantyl)butyl carbonate] | < 50 min | Yes | efficiently release EFdA in vivo with minimal to low levels of prodrug detected in the systemic circulation | Yes | < 50 min | 
C#C[C@]1(COC(=O)OC23CC4CC(CC(C4)C2)C3)O[C@@H](n2cnc3c(N)nc(F)nc32)C[C@@H]1OC(=O)OCC [Compound 27, 1-adamantyl ((2R,3S,5R)-5-(6-amino-2-fluoro-purin-9-yl)-3-ethoxycarbonyloxy-2-ethynyl-tetrahydrofuran-2-yl)methyl carbonate] | < 50 min | Yes |  | No |  | > 200 min
C#C[C@]1(COC(=O)OC23CC4CC(CC(C4)C2)C3)O[C@@H](n2cnc3c(N)nc(F)nc32)C[C@@H]1OC(=O)C(C)C [Compound 28, ((2R,3S,5R)-2-(1-adamantyloxycarbonyloxymethyl)-5-(6-amino-2-fluoro-9H-purin-9-yl)-2-ethynyl-tetrahydrofuran-3-yl) 2-methylpropanoate] | < 50 min | Yes |  | No | > 200 min | 
